What was measured:
[1] = system: SW837; experiment: combination cScore with sotorasib (Bliss gap around IC50) (%PoC); higher = stronger additive effect
How it was run: (§1)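 The score averages the gap between expected and measured viability under Bliss independence, taken over a field around the IC50 of each single agent or, where an IC50 was not reached, at the highest concentrations. Viability came from CellTiter-Glo luminescence, normalised to vehicle wells as percent of control and fitted with four-parameter curves. NCI-H2122, NCI-H358 and SW837 cells were dosed in concentration matrices 24 h after seeding and grown for 72 h, or 144 h for SW837.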

[2] = system: NCI-H2122; experiment: as above
How it was run: as §1

Row | Compound | combination cScore with sotorasib [1] | combination cScore with sotorasib [2]
1 | COc1cc(Nc2ncc3c(n2)-c2ccc(Cl)cc2C(c2c(F)cccc2OC)=NC3)ccc1C(=O)O [MLN8237] + C=CC(=O)N1CCN(c2nc(=O)n(-c3c(C)ccnc3C(C)C)c3nc(-c4c(O)cccc4F)c(F)cc23)[C@@H](C)C1 [sotorasib] | 10.3 | -3.51
2 | Cc1ccc(NC(=O)c2ccc(CN3CCN(C)CC3)cc2)cc1Nc1nc(-c2cccnc2)cs1 [Masitinib] + C=CC(=O)N1CCN(c2nc(=O)n(-c3c(C)ccnc3C(C)C)c3nc(-c4c(O)cccc4F)c(F)cc23)[C@@H](C)C1 [sotorasib] | -1.47 | 17.9
3 | C[C@H](Cc1ccc(O)c(O)c1)[C@@H](C)Cc1ccc(O)c(O)c1 [Masoprocol] + C=CC(=O)N1CCN(c2nc(=O)n(-c3c(C)ccnc3C(C)C)c3nc(-c4c(O)cccc4F)c(F)cc23)[C@@H](C)C1 [sotorasib] | 1.64 | -1.02
4 | N[C@@H](Cc1ccc(N(CCCl)CCCl)cc1)C(=O)O [Melphalan] + C=CC(=O)N1CCN(c2nc(=O)n(-c3c(C)ccnc3C(C)C)c3nc(-c4c(O)cccc4F)c(F)cc23)[C@@H](C)C1 [sotorasib] | 4.26 | 2.92
5 | CN(C)C(=N)NC(=N)N [Metformin] + C=CC(=O)N1CCN(c2nc(=O)n(-c3c(C)ccnc3C(C)C)c3nc(-c4c(O)cccc4F)c(F)cc23)[C@@H](C)C1 [sotorasib] | -0.945 | 5.93
6 | CN(Cc1cnc2nc(N)nc(N)c2n1)c1ccc(C(=O)N[C@@H](CCC(=O)O)C(=O)O)cc1 [Methotrexate] + C=CC(=O)N1CCN(c2nc(=O)n(-c3c(C)ccnc3C(C)C)c3nc(-c4c(O)cccc4F)c(F)cc23)[C@@H](C)C1 [sotorasib] | -3.51 | -3.03
7 | CO[C@@]12[C@H](COC(N)=O)C3=C(C(=O)C(C)=C(N)C3=O)N1C[C@@H]1N[C@@H]12 [Mitomycin C] + C=CC(=O)N1CCN(c2nc(=O)n(-c3c(C)ccnc3C(C)C)c3nc(-c4c(O)cccc4F)c(F)cc23)[C@@H](C)C1 [sotorasib] | 4.84 | 11
8 | CCc1cccc(CC)c1NC(=O)c1nn(C)c2c1CCc1cnc(Nc3ccc(C(=O)NC4CCN(C)CC4)cc3OC(F)(F)F)nc1-2 [NMS-P715] + C=CC(=O)N1CCN(c2nc(=O)n(-c3c(C)ccnc3C(C)C)c3nc(-c4c(O)cccc4F)c(F)cc23)[C@@H](C)C1 [sotorasib] | 13.2 | 2.28
9 | O=c1cc(N2CCOCC2)oc2c(-c3cccc4c3sc3ccccc34)cccc12 [NU-7441] + C=CC(=O)N1CCN(c2nc(=O)n(-c3c(C)ccnc3C(C)C)c3nc(-c4c(O)cccc4F)c(F)cc23)[C@@H](C)C1 [sotorasib] | 9.27 | 15
10 | Cn1c(=O)n(-c2ccc(C(C)(C)C#N)cc2)c2c3cc(-c4cnc5ccccc5c4)ccc3ncc21 [NVP-BEZ235] + C=CC(=O)N1CCN(c2nc(=O)n(-c3c(C)ccnc3C(C)C)c3nc(-c4c(O)cccc4F)c(F)cc23)[C@@H](C)C1 [sotorasib] | 7.37 | 12
11 | Cc1cn(-c2cc(NC(=O)c3ccc(C)c(Nc4nccc(-c5cccnc5)n4)c3)cc(C(F)(F)F)c2)cn1 [Nilotinib] + C=CC(=O)N1CCN(c2nc(=O)n(-c3c(C)ccnc3C(C)C)c3nc(-c4c(O)cccc4F)c(F)cc23)[C@@H](C)C1 [sotorasib] | 14.3 | 6.86
12 | COC(=O)c1ccc2c(c1)NC(=O)/C2=C(\Nc1ccc(N(C)C(=O)CN2CCN(C)CC2)cc1)c1ccccc1 [Nintedanib] + C=CC(=O)N1CCN(c2nc(=O)n(-c3c(C)ccnc3C(C)C)c3nc(-c4c(O)cccc4F)c(F)cc23)[C@@H](C)C1 [sotorasib] | 0.78 | 11.8
13 | CN1CCN(c2ccc(-c3cccc(CN4CCOCC4)c3)cc2NC(=O)c2c[nH]c(=O)cc2C(F)(F)F)CC1 [OICR-9429] + C=CC(=O)N1CCN(c2nc(=O)n(-c3c(C)ccnc3C(C)C)c3nc(-c4c(O)cccc4F)c(F)cc23)[C@@H](C)C1 [sotorasib] | 3.36 | 9.62
14 | O=C(O)C(=O)O.[NH-][C@@H]1CCCC[C@H]1[NH-].[Pt+2] [Oxaliplatin] + C=CC(=O)N1CCN(c2nc(=O)n(-c3c(C)ccnc3C(C)C)c3nc(-c4c(O)cccc4F)c(F)cc23)[C@@H](C)C1 [sotorasib] | 3.16 | 13.8
15 | CCCS(=O)(=O)Nc1ccc(F)c(C(=O)c2c[nH]c3ncc(Cl)cc23)c1F [PLX4720] + C=CC(=O)N1CCN(c2nc(=O)n(-c3c(C)ccnc3C(C)C)c3nc(-c4c(O)cccc4F)c(F)cc23)[C@@H](C)C1 [sotorasib] | 2.2 | 17.4
16 | CC(=O)O[C@H]1C(=O)[C@@]2(C)[C@H]([C@H](OC(=O)c3ccccc3)[C@]3(O)C[C@H](OC(=O)[C@H](O)[C@@H](NC(=O)c4ccccc4)c4ccccc4)C(C)=C1C3(C)C)[C@]1(OC(C)=O)CO[C@@H]1C[C@@H]2O [Paclitaxel] + C=CC(=O)N1CCN(c2nc(=O)n(-c3c(C)ccnc3C(C)C)c3nc(-c4c(O)cccc4F)c(F)cc23)[C@@H](C)C1 [sotorasib] | 3.37 | 9.86
17 | Cc1ccc(Nc2nccc(N(C)c3ccc4c(C)n(C)nc4c3)n2)cc1S(N)(=O)=O [Pazopanib] + C=CC(=O)N1CCN(c2nc(=O)n(-c3c(C)ccnc3C(C)C)c3nc(-c4c(O)cccc4F)c(F)cc23)[C@@H](C)C1 [sotorasib] | 2.58 | 9.15
18 | Nc1nc2[nH]cc(CCc3ccc(C(=O)N[C@@H](CCC(=O)O)C(=O)O)cc3)c2c(=O)[nH]1 [Pemetrexed] + C=CC(=O)N1CCN(c2nc(=O)n(-c3c(C)ccnc3C(C)C)c3nc(-c4c(O)cccc4F)c(F)cc23)[C@@H](C)C1 [sotorasib] | 16.4 | 1.36
19 | CC(C)(C)c1cc(NC(=O)Nc2ccc(-c3cn4c(n3)sc3cc(OCCN5CCOCC5)ccc34)cc2)no1 [Quizartinib] + C=CC(=O)N1CCN(c2nc(=O)n(-c3c(C)ccnc3C(C)C)c3nc(-c4c(O)cccc4F)c(F)cc23)[C@@H](C)C1 [sotorasib] | -4.13 | -1.22
20 | Cc1ncc(NC(=O)c2cccc(C(F)(F)F)c2)cc1-c1cnc(OC2CCOCC2)c(N2CCOCC2)c1 [RAF-709] + C=CC(=O)N1CCN(c2nc(=O)n(-c3c(C)ccnc3C(C)C)c3nc(-c4c(O)cccc4F)c(F)cc23)[C@@H](C)C1 [sotorasib] | 5.38 | 3.48
21 | CO[C@H]1C[C@@H]2CC[C@@H](C)[C@@](O)(O2)C(=O)C(=O)N2CCCC[C@H]2C(=O)O[C@H]([C@H](C)C[C@@H]2CC[C@@H](O)[C@H](OC)C2)CC(=O)[C@H](C)/C=C(\C)[C@@H](O)[C@@H](OC)C(=O)[C@H](C)C[C@H](C)/C=C/C=C/C=C/1C [Rapamycin] + C=CC(=O)N1CCN(c2nc(=O)n(-c3c(C)ccnc3C(C)C)c3nc(-c4c(O)cccc4F)c(F)cc23)[C@@H](C)C1 [sotorasib] | 10.2 | 13.4

Reference: the supplement of paper PMC11424490
